Source: patent US9493411B2 (AbbVie Inc., priority 2013, dated 2016)

Columns and labels:
[1] = target: T1, BRD4 (BDII_E352-M457) (Homo sapiens, UniProt O60885); experiment: TR-FRET bromodomain binding assay, BRD4 second bromodomain; details: His-tagged BD2, Alexa647-labeled probe 30 nM; Ki calculated from IC50
T1 construct: made in house
Summary of the method: (§1)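 His-tagged bromodomain (8 nM) was incubated 1 h at room temperature with Eu-anti-His antibody (1 nM), Alexa647-labeled BET-inhibitor probe (100 nM for BDI, 30 nM for BDII) and compound (50 μM-0.85 nM, 2% DMSO) in pH 6.0 phosphate buffer. TR-FRET ratio read; IC50 from 4-parameter fit converted to Ki using probe Kd.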

[2] = tested on: breast cancer cell line MX-1; experiment: MX-1 cell line proliferation assay; format: cell-based; details: Homo sapiens, MX1, 72 h, MX-1 cells, 3-day proliferation assay, Cell Titer Glo; read-out: Cellular proliferation: EC50
Experimental: The impact of compounds of the Examples on cancer cell proliferation was determined using the breast cancer cell line MX-1 (ATCC) in a 3-day proliferation assay and the data are reported in Table 1. MX-1 cells were maintained in RPMI 1640 medium (Sigma) supplemented with 10% FBS at 37° C. and an atmosphere of 5% CO2. For compound testing, MX-1 cells were plated in 96-well black bottom plates at a density of 5000 cells/well in 90 μL of culture media and incubated at 37° overnight to allow cell adhesion and spreading. Compound dilution series were prepared in DMSO via a 3-fold serial dilution from 3 mM to 0.1 μM. The DMSO dilution series were then diluted 1:100 in phosphate buffered saline, and 10 μL of the resulted solution were added to the appropriate wells of the MX-1 cell plate. The final compound concentrations in the wells were 3, 1, 0.3, 0.1, 0.03, 0.01, 0.003, 0.001, 0.0003 and 0.0001 μM.
Luminescence readings from the Cell Titer Glo assay were normalized to the DMSO treated cells and analyzed using the GraphPad Prism software with sigmoidal curve fitting to obtain EC50s. The minimum significant ratio (MSR) was determined to evaluate assay reproducibility (Eastwood et al., (2006) J Biomol Screen, 11: 253-261).

[3] = target: T2, BRD4 (BDI_K57-E168) (Homo sapiens, UniProt O60885); experiment: TR-FRET bromodomain binding assay, BRD4 first bromodomain; details: His-tagged BD1, Alexa647-labeled probe 100 nM; Ki calculated from IC50
T2 construct: BD1: amino acids K57-E168; made in house
Summary of the method: as §1

Row | Ki [1] [nM] | EC50 [2] [nM] | Ki [3] [nM] | Compound
1 | 2140 | 7750 | 1500 | Cc1[nH]c(-c2cccc(-c3cccc(CN4CCN(C)CC4)c3)c2)cc1C(N)=O [Example 158, 2-methyl-5-{3′-[(4-methylpiperazin-1-yl)methyl]biphenyl-3-yl}-1H-pyrrole-3-carboxamide]
2 | 2100 | 28600 | 1080 | Cc1[nH]c(-c2cccc(-c3ccc(C(=O)NCCN(C)C)cc3)c2)cc1C(N)=O [Example 159, 5-(4′-{[2-(dimethylamino)ethyl]carbamoyl}biphenyl-3-yl)-2-methyl-1H-pyrrole-3-carboxamide]
3 | 2250 | > 3000 | 627 | Cc1[nH]c(-c2cc(CCO)ccc2OCc2ccccc2)cc1C(N)=O [Example 167, 5-[2-(benzyloxy)-5-(2-hydroxyethyl)phenyl]-2-methyl-1H-pyrrole-3-carboxamide]
4 | 757 | > 3000 | 106 | Cc1[nH]c(-c2cc(S(N)(=O)=O)ccc2Oc2ccc(F)cc2F)cc1C(N)=O [Example 168, 5-[2-(2,4-difluorophenoxy)-5-sulfamoylphenyl]-2-methyl-1H-pyrrole-3-carboxamide]
